Measurements as given in patent publication US20250179121A1, “CYCLOSPORINE COMPOSITIONS AND METHODS OF USE” (Bacainn Biotherapeutics, Ltd., priority 2018, published 2025).
pIC50: −log10 of the molar value. Where “and” joins values, the source holds several entries; their conditions need not be identical. Equal values may be shown once.

Key:
neutrophil migration = experiment: PMN transmigration assay (T84 monolayer infected with Salmonella typhimurium, MPO readout); format: cell-based, human
Experimental: PMN transmigration assay. T84 colorectal cancer cells were grown to confluence on the bottom side of 12 well polycarbonate membrane inserts of a 24 well Transwell® plate. The confluent growth of these epithelial cells results in physiologically-relevant apical (luminal) and basolateral surfaces in the transwells. […] The monolayer was then infected on the apical surface with Salmonella typhimurium for 2 hours to induce hepoxilin A3 (HXA3) efflux through the MRP2 membrane protein and into the apical chamber. […] Freshly isolated and prepared human neutrophils were then added to the basolateral side and allowed to transmigrate through the monolayer for 2 hours. The number of neutrophils migrated to the apical chamber (due to the HXA3 gradient) was then assayed by determination of myeloperoxidase activity (a neutrophil biomarker). Inhibition of transmigration is indicated by lower MPO activity in the apical chamber.

[1] = Rat PK, plasma concentrations after oral dosing; format: in vivo, Sprague-Dawley rats; conditions: for plasma concentration of BT070 (breakdown product of BT051): individual animals A-E
Experimental: [Worded in the source for another target; this target is reported under the same test.] Blood samples were collected at the indicated time points and processed to plasma. Plasma concentrations of BT090 were assayed by LC-MS/MS. Feces were collected over t=0 to 4 h, 4-8 h, and 8-24 h, homogenized in buffer and assayed for BT090 concentrations by LC-MS/MS. Total feces weight collected for each time interval was recorded. BT090 was formulated in 1% NMP, 0.3% Tween-80 in 0.5% methylcellulose.

[2] = Amount excreted in feces after oral dosing in rats; format: in vivo, Sprague-Dawley rats; conditions: rat; for Conc. in feces: BT070 10 mg/kg oral, individual animals A-C, corrected for the 1:9 dilution factor
[3] = BT070 10 mg/kg oral, rat, individual animals A-C, 10 mg/kg

pIC50 (neutrophil migration; read-out: compound concentration at which 50% inhibition of neutrophil migration was observed, FIG. 1 dose-response): 7.51
plasma concentration, Mean ([1]; BT070 10 mg/kg oral, rat, 0.5 h, mean): 3588.6 ng/mL
plasma concentration, Mean ([1]; BT070 10 mg/kg oral, rat, 1 h, mean): 2301.5 ng/mL
plasma concentration, Mean ([1]; BT070 10 mg/kg oral, rat, 2 h, mean): 1522.8 ng/mL
plasma concentration, Mean ([1]; BT070 10 mg/kg oral, rat, 4 h, mean): 829.6 ng/mL
plasma concentration, Mean ([1]; BT070 10 mg/kg oral, rat, 6 h, mean): 488.3 ng/mL
plasma concentration, Mean ([1]; BT070 10 mg/kg oral, rat, 8 h, mean): 293.9 ng/mL
plasma concentration, Mean ([1]; BT070 10 mg/kg oral, rat, 24 h, mean): 101.2 ng/mL
AUCinf, Mean ([1]; BT070 10 mg/kg oral, rat, mean): 14735.7 ng·h/mL
AUClast, Mean ([1]; BT070 10 mg/kg oral, rat, mean): 12202.9 ng·h/mL
plasma concentration of BT070 (breakdown product of BT051), Mean ([1]; after BT051 10 mg/kg oral, rat, 0.5 h, mean): 3.3 ng/mL
Cmax of BT070 (breakdown product of BT051) ([1]; after BT051 10 mg/kg oral, rat, individual animals): 3.3 ng/mL
Cmax of BT070 (breakdown product of BT051), Mean ([1]; after BT051 10 mg/kg oral, rat, mean): 3.3 ng/mL
oral bioavailability of the breakdown product of BT051 ([1]; following oral administration of BT051 in rats at 10 mg/kg): not orally bioavailable
SMILES: CC[C@@H]1NC(=O)[C@H]([C@H](O)[C@H](C)CCCCCC(=O)O)N(C)C(=O)[C@H](C(C)C)N(C)C(=O)[C@H](CC(C)C)N(C)C(=O)[C@H](CC(C)C)N(C)C(=O)[C@@H](C)NC(=O)[C@H](C)NC(=O)[C@H](CC(C)C)N(C)C(=O)[C@H](C(C)C)NC(=O)[C@H](CC(C)C)N(C)C(=O)CN(C)C1=O [BT070]
inhibition of neutrophil migration, dose-response (neutrophil migration; FIG. 1): dose-responsive inhibition
inhibition of neutrophil migration (neutrophil migration; dose of 100 nM): exhibit inhibition of neutrophil migration
AUCinf [1, 3]: 17616.8 ng/mL * h and 19158.4* ng/mL * h and 7432.0 ng/mL * h
AUClast [1, 3]: 17560.9 ng·h/mL and 11798.3 ng·h/mL and 7249.5 ng·h/mL
plasma concentration of BT070 (breakdown product of BT051) ([1]; after BT051 10 mg/kg oral, rat, 0.5 h): 3.3 ng/mL and NQ (Not quantifiable. No peak or below limit of quantification (LOQ = 2.5 ng/mL)) (4×)
plasma concentration of BT070 (breakdown product of BT051) ([1]; after BT051 10 mg/kg oral, rat, 1 h): NQ (Not quantifiable. No peak or below limit of quantification (LOQ = 2.5 ng/mL))
plasma concentration of BT070 (breakdown product of BT051) ([1]; after BT051 10 mg/kg oral, rat, 2 h): NQ (Not quantifiable. No peak or below limit of quantification (LOQ = 2.5 ng/mL))
plasma concentration of BT070 (breakdown product of BT051) ([1]; after BT051 10 mg/kg oral, rat, 4 h): NQ (Not quantifiable. No peak or below limit of quantification (LOQ = 2.5 ng/mL))
plasma concentration of BT070 (breakdown product of BT051) ([1]; after BT051 10 mg/kg oral, rat, 6 h): NQ (Not quantifiable. No peak or below limit of quantification (LOQ = 2.5 ng/mL))
plasma concentration of BT070 (breakdown product of BT051) ([1]; after BT051 10 mg/kg oral, rat, 8 h): NQ (Not quantifiable. No peak or below limit of quantification (LOQ = 2.5 ng/mL))
plasma concentration of BT070 (breakdown product of BT051) ([1]; after BT051 10 mg/kg oral, rat, 24 h): NQ (Not quantifiable. No peak or below limit of quantification (LOQ = 2.5 ng/mL))
detection in the plasma from 15 minutes to 24 hours ([1]; compound dosed orally in rats at 10 mg/kg): present in the plasma in all subject rats
Conc. in feces ([2]; 0-4 h): NQ (Not quantifiable. No peak or below limit of quantification (LOQ = 1000 ng/mL))
Conc. in feces ([2]; 4-8 h): NQ (Not quantifiable. No peak or below limit of quantification (LOQ = 1000 ng/mL))
Total amount of BT070 (breakdown product of BT051) excreted in feces ([2]; after BT051 10 mg/kg oral, 0-48 h, individual animals A-D): 36.9 µg and 33.4 µg and 41.4 µg and 38.5 µg
Amount of BT070 (breakdown product of BT051) excreted in feces ([2]; after BT051 10 mg/kg oral, 8-24 h, individual animals A-D): 31.2 µg and 14.3 µg and 10.6 µg and 34.8 µg
Amount of BT070 (breakdown product of BT051) excreted in feces ([2]; after BT051 10 mg/kg oral, 24-48 h, individual animals A-D): 5.7 µg and 19.1 µg and 30.8 µg and 3.7 µg
